The text below walks through data of patent US20150344466A1 (SUMITOMO CHEMICAL COMPANY, LIMITED, priority 2013, published 2015).

A value given as a limit tells only on which side of the number the result lay.

What all share (assay type): in vivo
Test [1] concerns Blattella germanica. In words: Knockdown spray test on Blattella germanica, 2.0% w/v oil formulation (Test Example 1). Particulars: topical, 0.25 h, active ingredient 2.0% w/v, 1.5 ml sprayed, within 15 minutes, read-out: knockdown rate of the test insects within 15 minutes. The method, then:
Ten Blattella germanica (5 males and 5 females) were released in a test container (8.75 cm in diameter, 7.5 cm in height, and the bottom made of 16 mesh metallic wire) with the inner wall on which butter was applied, and the container was placed on the bottom of a test chamber (bottom: 46 cm×46 cm, height: 70 cm). From a height of 60 cm above the upper surface of the container, 1.5 ml of the test drug solution was sprayed using a spray gun (a spraying pressure of 0.42 kg/cm^2). Thirty seconds after spraying, the container was taken out from the test chamber, and after 2 minutes, 5 minutes and 15 minutes, the number of knocked-down insects was counted to obtain a knockdown rate. The knockdown rate was calculated by the following equation.
(§1) Knockdown Rate (%)=(Number of Knocked-down Insects/Number of Tested Insects)×100

Test [2] concerns Musca domestica. In words: Knockdown spray test on adult Musca domestica (Test Example 3). Particulars: topical, 0.25 h, active ingredient 2.0% w/v, 0.5 ml sprayed, within 15 minutes, read-out: knockdown rate of the test insects within 15 minutes. As for the experimental part: Ten adult Musca domestica (five males and five females) were released in a polyethylene cup (bottom diameter: 10.6 cm), and the cup was covered with a 16-mesh nylon gauze. The polyethylene cup was placed on the bottom of a test chamber (bottom: 46 cm×46 cm, height: 70 cm). From a height of 30 cm above the upper surface of the polyethylene cup, 0.5 ml of the test drug solution was sprayed using a spray gun (a spraying pressure of 0.9 kg/cm^2). Immediately after spraying, the cup was taken out from the test chamber, and after 2 minutes, 5 minutes and 15 minutes, the number of knocked-down insects was counted to obtain a knockdown rate. The knockdown rate was calculated by the following equation.
as §1

The test system of test [3] is Culex pipiens pallens. In words: Knockdown spray test on adult Culex pipiens pallens (Test Example 4). As to conditions: topical, 0.25 h, active ingredient 0.1% w/v, 0.5 ml sprayed, within 15 minutes, read-out: knockdown rate of the test insects within 15 minutes. In short, it runs like this:
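Ten adult mosquitoes in a gauze-covered cup inside a 46×46×70 cm chamber were sprayed with 0.5 ml of test solution from 30 cm at 0.4 kg/cm^2. The cup was removed at once, and knocked-down insects were counted at 2, 5 and 15 min; knockdown rate (%) = knocked-down/tested ×100.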

The test system of test [4] is Plutella xylostella. In words: Foliar spray test on Plutella xylostella on cabbage (Test Example 10). Particulars: 120 h, third instar larvae of Plutella xylostella on cabbage, 500 ppm spray 20 ml/cup, after five days, read-out: controlling value. The method, then: On the other hand, cabbage was planted in a polyethylene cup, and grown until the third-fourth true leaf was spread. The test spray solution was sprayed to the cabbage at a ratio of 20 ml/cup. After the drug solution sprayed on the cabbage was dried, 10 third instar larvae of Plutella xylostella were allowed to parasitize the cabbage. After five days, the number of Plutella xylostella was investigated, and the controlling value was calculated according to the following standard. Controlling value (%)={1−(Cb×Tai)/(Cai×Tb)}×100 In the equation, the symbols represent as follows. Cb: the number of insects in a non-treated section before treatment Cai: the number of insects in a non-treated section on observation Tb: the number of insects in a treated section before treatment Tai: the number of insects in a treated section on observation

Test [5] relates to Culex pipiens pallens. In words: Larvicidal test on Culex pipiens pallens, eight days (Test Example 7). Particulars: 192 h; last-instar larvae of Culex pipiens pallens; 3.5 ppm in water; eight days later; read-out: death rate. The method, then: 20 last-instar larvae of Culex pipiens pallens were released into a liquid to which 0.7 ml of the above test drug solution was added to 100 ml of ion-exchanged water (a concentration of the active ingredient of 3.5 ppm). Eight days later, the life and death of the Culex pipiens pallens was examined, and the death rate was calculated. The death rate was calculated by the following equation.
Death rate (%)=(Number of dead insects/Number of tested insects)×100

For test [6], the system named is Musca domestica. In words: Filter paper/sucrose bait death rate test on Musca domestica (Test Example 5). As to conditions: female imagoes of Musca domestica, 0.7 ml on filter paper, after 24 hours. In short, it runs like this:
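Filter paper in a 5.5 cm cup dosed with 0.7 ml test drug solution, with 30 mg sucrose as bait. Ten female adult houseflies released and cup sealed. Dead insects counted after 24 h; death rate (%) = dead/tested × 100.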

For test [7], the system named is Blattella germanica. In words: Knockdown spray test on Blattella germanica, 0.1% w/v oil formulation (Test Example 2). Particulars: topical, 0.25 h, active ingredient 0.1% w/v, 1.5 ml sprayed, within 15 minutes, read-out: knockdown rate of the test insects within 15 minutes. In short, it runs like this:
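Ten German cockroaches (5 males, 5 females) in a mesh-bottomed, butter-walled container were sprayed with 1.5 ml test solution from 60 cm at 0.42 kg/cm^2 inside a chamber.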

In the case of `O=C(NCC1CCOC1)c1cc(COCc2ccccc2)on1` (stereo not drawn) [(13), N-(tetrahydrofuran-3-ylmethyl)-5-benzyloxymethylisoxazole-3-carboxamide], the pest or weed control at 2 % strength in test [1] and in test [2] was at least 80% each time. Besides, the pest or weed control at 0.1 % strength in test [3] is at least 80%. In addition, the pest or weed control at 500 ppm in test [4] is at least 90%.

As for `O=C(NCC1CCOCC1)c1cc(COCc2ccccc2)on1` [(15), N-(tetrahydropyran-4-ylmethyl)-5-benzyloxymethylisoxazole-3-carboxamide], the pest or weed control at 2 % strength in test [1] and in test [2] was at least 80% each time. The pest or weed control at 0.1 % strength in test [3] is at least 80%. The pest or weed control at 500 ppm in test [4] is at least 90%.

Take `O=C(NCC1CCOCC1)c1cc(COCc2ccc3ccccc3c2)on1` [(21), N-(tetrahydropyran-4-ylmethyl)-5-(2-naphthylmethoxymethyl)isoxazole-3-carboxamide]: the pest or weed control at 2 % strength in test [1] and in test [2] was at least 80% in each case. Besides, in test [3], the pest or weed control at 0.1 % strength is at least 80%. Besides, in test [5], the pest or weed control at 3.5 ppm was at least 90%.

Consider `O=C(NCC1CCOC1)c1cc(CCCc2ccccc2)on1` (stereo not drawn) [(22), N-(tetrahydrofuran-3-ylmethyl)-5-(3-phenylpropyl)isoxazole-3-carboxamide], for which the pest or weed control at 2 % strength in test [1] and in test [2] was at least 80% in each case. In addition, the pest or weed control at 0.1 % strength in test [3] is at least 80%. For the same compound, the pest or weed control at 500 ppm in test [6] was at least 90%.

Turning to `O=C(NCC1CCOC1)c1cc(Cc2ccccc2)on1` (stereo not drawn) [(26), N-(tetrahydrofuran-3-ylmethyl)-5-benzylisoxazole-3-carboxamide], the pest or weed control at 2 % strength in test [1] and in test [2] was at least 80% in each case. Also, the pest or weed control at 0.1 % strength in test [3] is at least 80%. For the same compound, in test [6], the pest or weed control at 500 ppm was at least 90%.

Take `O=C(NCC1CCOC1)c1cc(COCc2ccc(Cl)cc2)on1` (stereo not drawn) [(70), N-(tetrahydrofuran-3-ylmethyl)-5-(4-chlorobenzyloxymethyl)isoxazole-3-carboxamide]: the pest or weed control at 0.1 % strength in test [7] and in test [3] was at least 80% each time. Besides, the pest or weed control at 3.5 ppm in test [5] was at least 90%. Besides, in test [4], the pest or weed control at 500 ppm is at least 90%.

Turning to `O=C(NCC1CCOC1)c1cc(COCc2cccc(OC(F)(F)F)c2)on1` (stereo not drawn) [(78), N-(tetrahydrofuran-3-ylmethyl)-5-(3-trifluoromethoxybenzyloxymethyl)isoxazole-3-carboxamide], the pest or weed control at 0.1 % strength in test [7] and in test [3] was at least 80% in each case. For the same compound, in test [5], the pest or weed control at 3.5 ppm is at least 90%.

As for `O=C(NCC1CCOC1)c1cc(COCc2ccc(Br)cc2)on1` (stereo not drawn) [(91), N-(tetrahydrofuran-3-ylmethyl)-5-(4-bromobenzyloxymethyl)isoxazole-3-carboxamide], the pest or weed control at 0.1 % strength in test [7] and in test [3] was at least 80% throughout. The pest or weed control at 3.5 ppm in test [5] is at least 90%. Also, the pest or weed control at 500 ppm in test [4] was at least 90%.

Turning to `O=C(NCC1CCOCC1)c1cc(COCc2ccc(SC(F)(F)F)cc2)on1` [(96), N-(tetrahydropyran-4-ylmethyl)-5-(4-trifluoromethylthiobenzyloxymethyl)isoxazole-3-carboxamide], the pest or weed control at 0.1 % strength in test [3] was at least 80%. Moreover, in test [5], the pest or weed control at 3.5 ppm is at least 90%.

Turning to `O=C(NCC1CCOC1)c1cc(COCC2CCc3ccccc3C2)on1` (stereo not drawn) [(118), N-(tetrahydrofuran-3-ylmethyl)-5-(1,2,3,4-tetrahydronaphthalen-2-ylmethoxymethyl)isoxazole-3-carboxamide], the pest or weed control at 2 % strength in test [1] and in test [2] was at least 80% each time. For the same compound, in test [3], the pest or weed control at 0.1 % strength is at least 80%. In test [4], the pest or weed control at 500 ppm was at least 90%.

With `O=C(NCC1CCOC1)c1cc(CCCCCCOCc2ccccc2)on1` (stereo not drawn) [(143), N-(tetrahydrofuran-3-ylmethyl)-5-(6-benzyloxyhexyl)isoxazole-3-carboxamide], the pest or weed control at 2 % strength in test [1] and in test [2] was at least 80% each time. Moreover, in test [3], the pest or weed control at 0.1 % strength was at least 80%.

On to `O=C(NCC1CCOC1)c1cc(CCCCOc2ccccc2)on1` (stereo not drawn) [(146), N-(tetrahydrofuran-3-ylmethyl)-5-(4-phenoxybutyl)isoxazole-3-carboxamide], for which the pest or weed control at 2 % strength in test [1] and in test [2] was at least 80% throughout. Moreover, in test [3], the pest or weed control at 0.1 % strength was at least 80%. For the same compound, the pest or weed control at 3.5 ppm in test [5] is at least 90%.

As for `O=C(NCC1CCOC1)c1cc(Cc2cccc(C(F)(F)F)c2)on1` (stereo not drawn) [(158), N-(tetrahydrofuran-3-ylmethyl)-5-(3-trifluoromethylbenzyl)isoxazole-3-carboxamide], the pest or weed control at 2 % strength in test [1] and in test [2] was at least 80% in each case. Besides, in test [3], the pest or weed control at 0.1 % strength was at least 80%.

As for `COC(=O)c1c(C(=O)NCC2CCOC2)noc1COCc1ccccc1` (stereo not drawn) [(167), N-(tetrahydrofuran-3-ylmethyl)-(5-benzyloxymethyl-4-methoxycarbonyl)isoxazole-3-carboxamide], the pest or weed control at 3.5 ppm in test [5] is at least 90%.

On to `O=C(NCC1CCOCC1)c1cc(COc2cccc(C(F)(F)F)c2)on1` [(199), N-(tetrahydropyran-4-ylmethyl)-5-(3-trifluoromethylphenoxymethyl)isoxazole-3-carboxamide], for which the pest or weed control at 0.1 % strength in test [3] is at least 80%. Also, the pest or weed control at 3.5 ppm in test [5] is at least 90%.

In the case of `O=C(NCC1CCOC1)c1cc(COCC#Cc2ccccc2)on1` (stereo not drawn) [(240), N-(tetrahydrofuran-3-ylmethyl)-5-(3-phenyl-2-propionyl)oxymethylisoxazole-3-carboxamide], the pest or weed control at 2 % strength in test [1] and in test [2] was at least 80% in each case. For the same compound, the pest or weed control at 0.1 % strength in test [7] and in test [3] was at least 80% throughout.

In the case of `O=C(NCC1CCOC1)c1cc(CCCc2ccc(Cl)cc2)on1` (stereo not drawn) [(252), N-(tetrahydrofuran-3-ylmethyl)-5-[3-(4-chlorophenyl]propyl) isoxazole-3-carboxamide], the pest or weed control at 0.1 % strength in test [7] and in test [3] was at least 80% in each case. Besides, in test [6], the pest or weed control at 500 ppm was at least 90%. The pest or weed control at 3.5 ppm in test [5] was at least 90%.

Turning to `Cc1c(C(=O)NCC2CCOC2)noc1CCCc1ccccc1F` (stereo not drawn) [(282), N-(tetrahydrofuran-3-ylmethyl)-4-methyl-5-[3-(2-fluorophenyl)propyl]isoxazole-3-carboxamide], the pest or weed control at 0.1 % strength in test [7] and in test [3] was at least 80% throughout. In test [6], the pest or weed control at 500 ppm was at least 90%. For the same compound, in test [5], the pest or weed control at 3.5 ppm is at least 90%.

`CC1(CNC(=O)c2cc(COCc3ccccc3)on2)COC1` [(334), N-(3-methyloxetan-3-ylmethyl)-5-benzyloxymethylisoxazole-3-carboxamide]: the pest or weed control at 2 % strength in test [1] and in test [2] was at least 80% each time. Moreover, the pest or weed control at 0.1 % strength in test [7] and in test [3] was at least 80% throughout.
